Test results published in the Kinase Knowledgebase extract (Sharma et al. 2016).

What follows are molecules tested against PIK3CG (human) (UniProt P48736) (assay: Assessment of PIK3CG Kinase Activity).
Sequence of PIK3CG (human) (P48736 whole entry, looked up): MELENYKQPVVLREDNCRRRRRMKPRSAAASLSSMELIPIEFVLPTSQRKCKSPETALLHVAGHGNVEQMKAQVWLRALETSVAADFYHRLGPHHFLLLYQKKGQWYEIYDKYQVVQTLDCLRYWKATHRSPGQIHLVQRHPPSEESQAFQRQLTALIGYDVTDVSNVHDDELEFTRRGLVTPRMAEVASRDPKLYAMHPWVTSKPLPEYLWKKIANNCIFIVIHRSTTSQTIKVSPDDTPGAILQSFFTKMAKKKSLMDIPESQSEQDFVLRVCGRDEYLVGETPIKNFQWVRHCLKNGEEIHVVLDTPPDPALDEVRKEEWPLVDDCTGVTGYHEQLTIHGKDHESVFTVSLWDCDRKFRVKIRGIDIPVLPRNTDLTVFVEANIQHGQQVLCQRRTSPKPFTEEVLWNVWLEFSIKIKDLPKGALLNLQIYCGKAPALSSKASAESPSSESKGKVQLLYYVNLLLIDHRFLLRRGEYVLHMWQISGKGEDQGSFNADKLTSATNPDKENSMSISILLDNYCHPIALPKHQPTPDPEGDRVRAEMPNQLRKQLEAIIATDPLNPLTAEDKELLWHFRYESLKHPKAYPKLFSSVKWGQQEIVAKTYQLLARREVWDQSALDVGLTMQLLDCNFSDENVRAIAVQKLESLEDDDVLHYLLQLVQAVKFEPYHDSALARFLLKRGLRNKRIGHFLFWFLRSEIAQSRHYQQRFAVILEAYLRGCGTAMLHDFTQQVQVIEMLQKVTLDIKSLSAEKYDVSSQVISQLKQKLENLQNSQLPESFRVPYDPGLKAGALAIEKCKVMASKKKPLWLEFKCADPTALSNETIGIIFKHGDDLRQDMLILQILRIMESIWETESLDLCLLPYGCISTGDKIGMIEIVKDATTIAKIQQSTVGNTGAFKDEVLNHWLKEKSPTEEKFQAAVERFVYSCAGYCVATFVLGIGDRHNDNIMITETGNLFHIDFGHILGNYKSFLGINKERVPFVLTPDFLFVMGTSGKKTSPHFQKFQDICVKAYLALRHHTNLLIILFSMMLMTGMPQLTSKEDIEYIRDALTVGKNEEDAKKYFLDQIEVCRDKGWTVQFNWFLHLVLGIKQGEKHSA

Row | Compound | IC50 [µM]
1 | CC(=O)Nc1nc2c(s1)-c1nc(-c3cc(C#CCNS(=O)(=O)C4CCCCC4)ccc3Cl)ncc1CC2 | < 0.6
2 | CC(=O)Nc1nc2c(s1)-c1nc(-c3cc(C#CCNCC(C)(C)C)ccc3Cl)ncc1CC2 | < 0.6
3 | CNC(=O)N1CCC(C#Cc2ccc(Cl)c(-c3ncc4c(n3)-c3sc(NC(C)=O)nc3CC4)c2)CC1 | < 0.6
4 | COC1(C#Cc2ccc(Cl)c(-c3ncc4c(n3)-c3sc(NC(C)=O)nc3CC4)c2)CCCCC1 | < 0.6
5 | CC(=O)Nc1nc2c(s1)-c1nc(-c3cc(C#CCNS(=O)(=O)CC(F)(F)F)ccc3Cl)ncc1CC2 | < 0.6
6 | CC(=O)Nc1nc2c(s1)-c1nc(-c3cc(C#CC4(NC(C)C)CCCCC4)ccc3Cl)ncc1CC2 | < 0.6
7 | CC(=O)Nc1nc2c(s1)-c1nc(-c3cc(C#CCNC(=O)CC4CC4)ccc3Cl)ncc1CC2 | < 0.6
8 | CC(=O)Nc1nc2c(s1)-c1nc(-c3cc(C#CCNC(=O)C(C)C)ccc3Cl)ncc1CC2 | < 0.6
9 | CCS(=O)(=O)N(C)CC#Cc1ccc(Cl)c(-c2ncc3c(n2)-c2sc(NC(C)=O)nc2CC3)c1 | < 0.6
10 | CC(=O)Nc1nc2c(s1)-c1nc(-c3cc(C#CC4(O)CCCCC4)ccc3Cl)ncc1CC2 | < 0.6
11 | CC(=O)Nc1nc2c(s1)-c1nc(-c3cc(C#CCNC(=O)CC4CCCC4)ccc3Cl)ncc1CC2 | < 0.6
12 | CC(=O)Nc1nc2c(s1)-c1nc(-c3cc(C#CCNS(=O)(=O)Cc4ccccc4)ccc3Cl)ncc1CC2 | < 0.6
13 | CC(=O)Nc1nc2c(s1)-c1nc(-c3cc(C#CCNS(=O)(=O)C(C)C)ccc3Cl)ncc1CC2 | < 0.6
14 | CC(=O)Nc1nc2c(s1)-c1nc(-c3cc(C#CCN4CCC(C(N)=O)CC4)ccc3Cl)ncc1CC2 | < 0.6
15 | CC(=O)Nc1nc2c(s1)-c1nc(-c3cc(C#CC4CCN(C(=O)N(C)C)CC4)ccc3Cl)ncc1CC2 | < 0.6
16 | COC1CCN(S(=O)(=O)NCC#Cc2ccc(Cl)c(-c3ncc4c(n3)-c3sc(NC(C)=O)nc3CC4)c2)CC1 | < 0.6
17 | CC(=O)Nc1nc2c(s1)-c1nc(-c3cc(C#CC4CCN(C(C)=O)CC4)ccc3Cl)ncc1CC2 | < 0.6
18 | CC(=O)Nc1nc2c(s1)-c1nc(-c3cc(C#C[C@@H]4CCCN4)ccc3Cl)ncc1CC2 | < 0.6
19 | CC(=O)Nc1nc2c(s1)-c1nc(-c3cc(C#CCN4CCN(C(C)C)CC4)ccc3Cl)ncc1CC2 | < 0.6
20 | CC(=O)Nc1nc2c(s1)-c1nc(-c3cc(C#Cc4ccccc4)ccc3Cl)ncc1CC2 | < 0.6
21 | CC(=O)Nc1nc2c(s1)-c1nc(-c3cc(C#CC4(N(C)C)CCCC4)ccc3Cl)ncc1CC2 | < 0.6
22 | CC(=O)NCC#Cc1cccc(-c2ncc3c(n2)-c2sc(NC(C)=O)nc2CC3)c1 | < 0.6
23 | CC(=O)Nc1nc2c(s1)-c1nc(-c3cc(C#CC4CCN(C5CCCC5)CC4)ccc3F)ncc1CC2 | < 0.6
24 | CC(=O)Nc1nc2c(s1)-c1nc(-c3cc(C#CCN(C)C(C)=O)ccc3Cl)ncc1CC2 | < 0.6
25 | CC(=O)Nc1nc2c(s1)-c1nc(-c3cc(C#CCCN(C)C)ccc3Cl)ncc1CC2 | < 0.6
26 | CC(=O)Nc1nc2c(s1)-c1nc(-c3cc(C#CC4(N(C)C)CCCCC4)ccc3Cl)ncc1CC2 | < 0.6
27 | CC(=O)Nc1nc2c(s1)-c1nc(-c3cc(C#CCN4CCNC(=O)C4)ccc3Cl)ncc1CC2 | < 0.6
28 | CC(=O)Nc1nc2c(s1)-c1nc(-c3cccc(C#CC4CCN(C)CC4)c3)ncc1CC2 | < 0.6
29 | CC(=O)Nc1nc2c(s1)-c1nc(-c3cc(C#CCC4CCCC4)ccc3Cl)ncc1CC2 | < 0.6

Other lines, results leading:

Row | IC50 [µM] | Compound
30 | < 0.6 | CC(=O)Nc1nc2c(s1)-c1nc(-c3cc(C#CC4CCN(C(=O)C(C)C)CC4)ccc3Cl)ncc1CC2
31 | < 0.6 | CC(=O)Nc1nc2c(s1)-c1nc(-c3cc(C#CC4(N5CCCC5)CCCCC4)ccc3Cl)ncc1CC2
32 | < 0.6 | CC(=O)Nc1nc2c(s1)-c1nc(-c3cc(C#CCCCN4CCCC4)ccc3Cl)ncc1CC2
33 | < 0.6 | CC(=O)Nc1nc2c(s1)-c1nc(-c3cccc(C#CCNC(=O)C4CCN(C)CC4)c3)ncc1CC2
34 | < 0.6 | CC(=O)Nc1nc2c(s1)-c1nc(-c3cccc(C#CCNS(=O)(=O)C4CC4)c3)ncc1CC2
35 | < 0.6 | CC(=O)Nc1nc2c(s1)-c1nc(-c3cc(C#CCNC(=O)C4CC4)ccc3Cl)ncc1CC2
36 | < 0.6 | CC(=O)Nc1nc2c(s1)-c1nc(-c3cc(C#CCN(C)S(C)(=O)=O)ccc3Cl)ncc1CC2
37 | < 0.6 | CC(=O)Nc1nc2c(s1)-c1nc(-c3cc(C#CCCCNC(C)C)ccc3Cl)ncc1CC2
38 | < 0.6 | CC(=O)Nc1nc2c(s1)-c1nc(-c3cc(C#CCNC(=O)NC4CCCC4)ccc3Cl)ncc1CC2
39 | < 0.6 | CCS(=O)(=O)NCC#Cc1ccc(Cl)c(-c2ncc3c(n2)-c2sc(NC(C)=O)nc2CC3)c1
40 | < 0.6 | CC(=O)Nc1nc2c(s1)-c1nc(-c3cc(C#CCN4CCN(C)C(=O)C4)ccc3Cl)ncc1CC2
41 | < 0.6 | CC(=O)Nc1nc2c(s1)-c1nc(-c3cc(C#Cc4cncn4C)ccc3Cl)ncc1CC2
42 | < 0.6 | CNCC#Cc1cccc(-c2ncc3c(n2)-c2sc(NC(C)=O)nc2CC3)c1
43 | < 0.6 | CC(=O)Nc1nc2c(s1)-c1nc(-c3cc(C#CCNC(=O)Cn4ccnc4)ccc3Cl)ncc1CC2
44 | < 0.6 | CC(=O)Nc1nc2c(s1)-c1nc(-c3cc(C#CCN4CCC(N(C)C)CC4)ccc3Cl)ncc1CC2
45 | < 0.6 | CC(=O)Nc1nc2c(s1)-c1nc(-c3cc(C#CCCCNC4CCCC4)ccc3Cl)ncc1CC2
46 | < 0.6 | CC(=O)Nc1nc2c(s1)-c1nc(-c3cc(C#CCCCN4CCC(N(C)C)CC4)ccc3Cl)ncc1CC2

Row | IC50 [µM] | Compound
47 | < 0.6 | CC(=O)Nc1nc2c(s1)-c1nc(-c3cc(C#CCNS(=O)(=O)N4CCCC4)ccc3Cl)ncc1CC2
48 | < 0.6 | CC(=O)Nc1nc2c(s1)-c1nc(-c3cc(Cl)cc(C#CC4CCN(C5CCCC5)CC4)c3)ncc1CC2
49 | < 0.6 | CC(=O)Nc1nc2c(s1)-c1nc(-c3cc(C#CCCN(C)C(C)=O)ccc3Cl)ncc1CC2
50 | < 0.6 | CC(=O)Nc1nc2c(s1)-c1nc(-c3cc(C#CCNS(=O)(=O)N4CCOCC4)ccc3Cl)ncc1CC2
51 | < 0.6 | CC(=O)Nc1nc2c(s1)-c1nc(-c3cc(C#CCNS(C)(=O)=O)ccc3Cl)ncc1CC2
52 | < 0.6 | CC(=O)Nc1nc2c(s1)-c1nc(-c3cc(C#CCN(C)S(=O)(=O)N4CCOCC4)ccc3Cl)ncc1CC2
53 | < 0.6 | CC(=O)Nc1nc2c(s1)-c1nc(-c3cc(C#CCNC4CCCC4)ccc3Cl)ncc1CC2
54 | < 0.6 | CNC(=O)Nc1nc2c(s1)-c1nc(-c3cc(C#CC4CCN(C5CCCC5)CC4)ccc3Cl)ncc1CC2
55 | < 0.6 | CC(=O)Nc1nc2c(s1)-c1nc(-c3cc(C#CCNCc4ncccc4C)ccc3Cl)ncc1CC2
56 | < 0.6 | CCN(CC)S(=O)(=O)NCC#Cc1ccc(Cl)c(-c2ncc3c(n2)-c2sc(NC(C)=O)nc2CC3)c1
57 | < 0.6 | CC(=O)Nc1nc2c(s1)-c1nc(-c3cc(C#CCCCN(C)C(C)C)ccc3Cl)ncc1CC2
58 | < 0.6 | CC(=O)Nc1nc2c(s1)-c1nc(-c3cc(C#CCN4CC[S+]([O-])CC4)ccc3Cl)ncc1CC2
59 | < 0.6 | CC(=O)Nc1nc2c(s1)-c1nc(-c3cc(C#CCNS(=O)(=O)N(C)C)ccc3Cl)ncc1CC2
60 | < 0.6 | CC(=O)Nc1nc2c(s1)-c1nc(-c3cc(C#CCNCCN4CCCC4)ccc3Cl)ncc1CC2
61 | < 0.6 | CC(=O)Nc1nc2c(s1)-c1nc(-c3cc(C#CC4CCN(S(=O)(=O)C(C)C)CC4)ccc3Cl)ncc1CC2
62 | < 0.6 | CCNC(=O)N1CCC(C#Cc2ccc(Cl)c(-c3ncc4c(n3)-c3sc(NC(C)=O)nc3CC4)c2)CC1
63 | < 0.6 | CC(=O)Nc1nc2c(s1)-c1nc(-c3cc(C#CCn4ccnc4)ccc3Cl)ncc1CC2
